Source: US5250537A, “5,6,7,8,9,10-hexahydro-7 ,10-iminocyclohept[b]indole,-6,7,8,9,10-hexahydro-7,11-imino-5H-cyclooct[ b]indole and substituted derivatives” (Scios Nova Inc., priority 1992, dated 1993)
Read-outs that look alike come from different tables or passages of the source.

Columns and labels:
[1] = molecular target: sigma receptor ([3H]DTG site); experiment: In Vitro Sigma Receptor Binding, [3H]DTG; conditions: guinea pig brain; 45 minutes at 25° C.
Procedure: (§1) For both assays frozen guinea pig brains (PelFreez Biologicals, Rogers, AK) were thawed and homogenized in 10 volumes (w/v) of ice cold 0.32M sucrose using 10 strokes of a motor-drivenglass-fitted teflon pestle adjusted to 600 rpm. The homogenate was centrifuged (4° C.) at 900× g for 10 minutes and the resultant supernatant collected and centrifuged at 22,000×g for 20 minutes. The pellet obtained from the centrifugation was resuspended in 10 volumes of 50 mM Tris HCl (pH 7.4, 25° C.) and incubated for 30 minutes at 37° C. Following the preincubation, the homogenate was centrifuted at 22,000×g for 20 minutes and the final pellet was resuspended in buffer to a protein concentration of 0.5-1.0 mg/mL for use in the assay.
(§2) Binding reactions were initiated by the addition of tissue (800 μL) to tubes containing assay buffer, the radioligand (final concentration 1-3 nM) and the compound of interest. Haloperidol (10 μM) and (+)-3-PPP (10 μM) were used to determine the levels of […] [^3 H]DTG and [^3 H](+)PPP binding, respectively. Final assay volume was 1 mL. Reactions were allowed to proceed for 45 minutes at 25° C. and terminated by rapid filtration over Whatman GF/B filters which were washed 3 times with 5 mL of cold buffer. Radioactivity trapped on the filters was determined using routine methods. […] All assays were performed using triplicate determinations. For comparison purposes, IC50 values are reported rather than Ki values.

dopamine (D-2) receptors = molecular target: T1, dopamine (D-2) receptors (Rattus norvegicus, UniProt P61169); experiment: In Vitro Dopamine (D-2) Receptor Binding, [3H]sulpiride
T1 construct: the corpus striatum was dissected and homogenized; from tissue; host or cells: rat corpus striatum membranes
Procedure: On the day of assay, rats were sacrificed by decapitation, the corpus striatum was dissected and homogenized in 20 volumes of ice-cold 50 mM Tris HCl (pH 7.5, 25° C.). The homogenate was centrifuged (4° C.) at 48,000×g for 10 minutes and the resulting pellet was resuspended in 20 volumes of fresh buffer and recentrifuged. […] A portion of the suspension (800 μL) was added in triplicate to tubes containing 3 nM [^3 H]sulpiride and the test compound. The final assay volume was 1 mL; haloperidol (10 μM) was used to determine non-specific binding. Following a 60 minute incubation at 25° C., the reactions were terminated by rapid filtration over Whatman GF/B filters which had been pretreated in a solution of 0.3% (w/v) of aqueous polyethylenimine. Filters were washed three times using 5 mL of ice-cold buffer and processed using standard procedures to determine radioactivity. IC50 values were obtained from concentration-response curves in which a number of concentrations of test compound were examined. Ki values were determined using the Cheng-Prusoff equation.

[2] = molecular target: T2, sigma receptor ([3H](+)-3-PPP site) (Cavia porcellus, UniProt Q60492); experiment: In Vitro Sigma Receptor Binding, [3H](+)-3-PPP; set-up: species or system guinea pig; conditions: guinea pig brain; 45 minutes at 25° C.; read-out: Sigma [3H](+)-3-PPP binding IC50
T2 construct: frozen guinea pig brains; tissue PelFreez Biologicals, Rogers, AK; host or cells: guinea pig brain membranes
Procedure: as §1, §2

[3] = molecular target: T3, serotonin 5-HT2 receptors (Rattus norvegicus, UniProt P14842); experiment: In Vitro Serotonin (5-HT2) Receptor Binding, [3H]ketanserin; conditions: for Ki: rat cortical membranes, 1 nM [3H]ketanserin
T3 construct: Rat cortical synaptosomal membranes were prepared on the day of assay; from tissue; host or cells: rat frontal cortex synaptosomal membranes
Procedure: The potency of compounds to inhibit the specific binding of [^3 H]ketanserin (84.2 Ci/mM) to serotonin 5-HT2 receptors was determined as detailed previously [J. E. Leysen, C. J. E. Niemegers, J. M. Van Neuten and P. M. Laduron, Mol. Pharmacol., 21, 301-314 (1982)]. Rat cortical synaptosomal membranes were prepared on the day of assay. Animals were sacrified by decapitation, the frontal cortex was removed and homogenized in 10 volumes (w/v) of ice-cold 0.32M sucrose using a motor driven teflon pestle fitted to a glass tube. The synaptosomal pellet was suspended in 50 mM Tris HCl (pH 7.6 at 25° C.) to a concentration of 7.5 mg original wet weight/mL. For the binding reaction, 400 μL of this tissue suspension was added to polypropylene tubes containing 50 mM Tris HCl and [^3 H]ketanserin (final concentration of 1 nM) in a final assay volume of 0.5 mL. Following a 15 minute incubation at 37° C., the binding reaction was terminated by rapid vacuum filtration over Whatman GF/B filters (presoaked in 0.1% PEI) followed by 3×4 mL washes with ice cold 50 mM Tris HCl. Nonspecific binding was assessed in the presence of 10 μM methysergide. All incubations were performed in triplicate. IC50 values were determined using log logit analysis.

[4] = rat corpus striatum, 3 nM [3H]sulpiride, read-out: Dopamine D-2 [3H]sulpiride Ki
[5] = read-out: Serotonin 5-HT2 [3H]ketanserin, % @ 1 μM
[6] = read-out: Dopamine D-2 [3H]sulpiride Ki
[7] = Dopamine D-2 [3H]sulpiride Ki, rat corpus striatum, 3 nM [3H]sulpiride
[8] = read-out: Serotonin 5-HT2 [3H]ketanserin, value @ 1 μM

T3 sequence (P14842 whole entry): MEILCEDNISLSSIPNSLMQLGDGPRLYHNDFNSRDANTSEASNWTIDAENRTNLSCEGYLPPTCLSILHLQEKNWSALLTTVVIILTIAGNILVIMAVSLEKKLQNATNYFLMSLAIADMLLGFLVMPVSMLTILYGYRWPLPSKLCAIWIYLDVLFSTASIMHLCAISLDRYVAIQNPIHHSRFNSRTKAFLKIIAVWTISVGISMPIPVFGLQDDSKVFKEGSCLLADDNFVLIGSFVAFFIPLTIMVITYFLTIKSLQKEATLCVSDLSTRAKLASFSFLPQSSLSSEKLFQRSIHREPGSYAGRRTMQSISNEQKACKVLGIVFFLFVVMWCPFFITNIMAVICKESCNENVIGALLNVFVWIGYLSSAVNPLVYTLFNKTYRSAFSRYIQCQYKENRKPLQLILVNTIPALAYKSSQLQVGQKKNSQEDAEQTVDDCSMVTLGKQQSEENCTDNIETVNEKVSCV
T2 sequence (Q60492 whole entry): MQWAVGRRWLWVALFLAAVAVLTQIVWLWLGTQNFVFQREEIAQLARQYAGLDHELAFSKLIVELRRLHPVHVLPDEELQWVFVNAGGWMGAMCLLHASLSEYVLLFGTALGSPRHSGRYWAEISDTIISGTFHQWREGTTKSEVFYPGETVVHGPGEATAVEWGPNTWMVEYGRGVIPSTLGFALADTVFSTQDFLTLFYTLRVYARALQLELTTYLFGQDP
T1 sequence (P61169 whole entry): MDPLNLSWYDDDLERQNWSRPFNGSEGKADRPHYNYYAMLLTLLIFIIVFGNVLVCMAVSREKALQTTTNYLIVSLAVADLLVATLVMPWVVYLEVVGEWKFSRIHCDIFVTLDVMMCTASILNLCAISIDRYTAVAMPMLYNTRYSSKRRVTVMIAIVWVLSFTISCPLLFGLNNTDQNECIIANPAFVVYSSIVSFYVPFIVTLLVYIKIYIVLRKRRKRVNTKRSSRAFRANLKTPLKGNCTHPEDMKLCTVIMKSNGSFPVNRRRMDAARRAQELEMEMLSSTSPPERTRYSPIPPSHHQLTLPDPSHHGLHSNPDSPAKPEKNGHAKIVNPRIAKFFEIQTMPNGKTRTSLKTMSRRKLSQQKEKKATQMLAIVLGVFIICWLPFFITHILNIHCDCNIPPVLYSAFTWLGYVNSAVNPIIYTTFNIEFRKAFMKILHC

| SMILES | Ki (dopamine (D-2) receptors; [4]) [nM] | inhibition at 1 µM [3, 5] [%] | Ki [3] [nM] | further results |
| --- | --- | --- | --- | --- |
| CC(CCc1ccccc1)N1C2CCC1c1c([nH]c3ccccc13)C2 (single isomer, unassigned) [1 (high Rf) H H CH(CH3)(CH2)2 Ph 2] | 1110 |  |  | IC50 [1]: 23 nM; IC50 [2]: 1500 nM |
| CC(CCc1ccccc1)N1C2CCC1c1c([nH]c3ccccc13)C2 (single isomer, unassigned) [1 (low Rf) H H CH(CH3)(CH2)2 Ph 2] | 530 | 72.8 |  | IC50 [1]: 119 nM; IC50 [2]: 1160 nM |
| Clc1ccc(CCN2C3CCC2c2c([nH]c4ccccc24)C3)cc1Cl (stereo not drawn) [1 H H (CH2)2 3,4-Cl2 Ph 2] | 3430 | 6.7 |  |  |
| CCCN1C2CCC1c1c([nH]c3ccccc13)C2 (stereo not drawn) [1 H H (CH2)2 CH3 2] | 14400 ± 4400 |  |  |  |
| C=CCCN1C2CCC1c1c([nH]c3ccccc13)C2 (stereo not drawn) [1 H H (CH2)2 CHCH2 2] | 710 | 12.3 |  |  |
| c1ccc(C(CCN2C3CCC2c2c([nH]c4ccccc24)C3)c2ccccc2)cc1 (stereo not drawn) [1 H H (CH2)2 CHPh2 2] | 4520 | 27.3 |  |  |
| Clc1ccc(OCCN2C3CCC2c2c([nH]c4ccccc24)C3)cc1 (stereo not drawn) [1 H H (CH2)2 O-4-ClPh 2] | 530 |  | 377 | IC50 [1]: 268 ± 38 nM; IC50 [2]: 5980 ± 3510 nM |
| c1ccc(OCCN2C3CCC2c2c([nH]c4ccccc24)C3)cc1 (stereo not drawn) [1 H H (CH2)2 OPh 2] | 2600 |  | 20 | IC50 [1]: 110 ± 14 nM; IC50 [2]: 534 ± 57 nM |
| c1ccc(CCN2C3CCC2c2c([nH]c4ccccc24)C3)cc1 (stereo not drawn) [1 H H (CH2)2 Ph 2] | 840 | 8.8 |  |  |
| O=C(CCCN1C2CCC1c1c([nH]c3ccccc13)C2)c1ccc(F)cc1 (stereo not drawn) [1 H H (CH2)3 CO 4-FPh 2] | 280 |  | 0.82 |  |
| Fc1ccc(OCCCN2C3CCC2c2c([nH]c4ccccc24)C3)cc1 (stereo not drawn) [1 H H (CH2)3 O-4-FPh 2] |  |  | 11.4 |  |
| c1ccc(OCCCN2C3CCC2c2c([nH]c4ccccc24)C3)cc1 (stereo not drawn) [1 H H (CH2)3 OPh 2] | 1270 ± 260 |  | 22.9 | IC50 [1]: 132 ± 16 nM; IC50 [2]: 262 ± 19 nM |
| c1ccc(CCCN2C3CCC2c2c([nH]c4ccccc24)C3)cc1 (stereo not drawn) [1 H H (CH2)3 Ph 2] | 2600 |  | 106 |  |
| Fc1ccc(CCCCN2C3CCC2c2c([nH]c4ccccc24)C3)cc1 (stereo not drawn) [1 H H (CH2)4 4-FPh 2] |  |  | 22.1 | Ki (dopamine (D-2) receptors; [6]): 1160 nM |
| O=C(CCCCN1C2CCC1c1c([nH]c3ccccc13)C2)c1ccc(F)cc1 (stereo not drawn) [1 H H (CH2)4 CO 4-FPh 2] |  |  |  | IC50 [1]: 131 nM; Ki (dopamine (D-2) receptors; [7]): 3.5 nM; IC50 [2]: 224 nM |
| c1ccc(OCCCCN2C3CCC2c2c([nH]c4ccccc24)C3)cc1 (stereo not drawn) [1 H H (CH2)4 OPh 2] | 100 |  | 48 | IC50 [1]: 88 ± 15 nM; IC50 [2]: 205 nM |
| c1ccc(CCCCN2C3CCC2c2c([nH]c4ccccc24)C3)cc1 (stereo not drawn) [1 H H (CH2)4 Ph 2] |  |  | 56.5 | Ki (dopamine (D-2) receptors; [7]): 720 nM |
| O=C1CC2(CCCC2)CC(=O)N1CCCCN1C2CCC1c1c([nH]c3ccccc13)C2 (stereo not drawn) [1 H H (CH2)4 [drawing 3] 2] |  | 12 |  | Ki (dopamine (D-2) receptors; [7]): 2380 ± 560 nM |

| SMILES | Ki (dopamine (D-2) receptors; [4]) [nM] | inhibition at 1 µM [3, 5] [%] | Ki [3] [nM] | further results |
| --- | --- | --- | --- | --- |
| c1ccc(CCCCCN2C3CCC2c2c([nH]c4ccccc24)C3)cc1 (stereo not drawn) [1 H H (CH2)5 Ph 2] | 680 ± 230 |  | 42.5 | IC50 [1]: 107 ± 59 nM; IC50 [2]: 348 ± 70 nM |
| c1ccc2c3c([nH]c2c1)CC1CCC3N1 (stereo not drawn) [1 H H -- H 2] | 100000 | 0.2 |  | IC50 [2]: 2180 nM |
| c1ccc(CN2C3CCC2c2c([nH]c4ccccc24)C3)cc1 (stereo not drawn) [1 H H CH2 Ph 2] | 3650 | 22.4 |  |  |
| C(=C\c1ccccc1)/CN1C2CCC1c1c([nH]c3ccccc13)C2 (stereo not drawn) [1 H H E-CH2 CHCH Ph 2] | 2460 | 36.6 |  |  |
| CN1C2CCC1c1c([nH]c3ccccc13)C2 (stereo not drawn) [3 H H -- CH3 2] | 16700 ± 6000 | 26.4 |  |  |
| Fc1ccc2[nH]c3c(c2c1)C1CCC(C3)N1CCCc1cccnc1 (stereo not drawn) [4 F H (CH2)3 3-pyridyl 2] | 12200 ± 4700 | 0 |  |  |
| O=C(CCCN1C2CCC1c1c([nH]c3ccc(F)cc13)C2)c1ccc(F)cc1 (stereo not drawn) [4 F H (CH2)3 CO 4-FPh 2] |  |  | 2.07 | IC50 [1]: 55 nM; IC50 [2]: 408 nM |
| Fc1ccc2[nH]c3c(c2c1)C1CCC(C3)N1CCCCc1ccccc1 (stereo not drawn) [4 F H (CH2)4 Ph 2] |  |  | 74 | Ki (dopamine (D-2) receptors; [6]): 770 nM |
| Fc1ccc2[nH]c3c(c2c1)C1CCC(C3)N1 (stereo not drawn) [4 F H -- H 2] | 36600 | 28.2 |  |  |
| Fc1ccc2[nH]c3c(c2c1)C1CCC(C3)N1Cc1ccccc1I (stereo not drawn) [4 F H CH2 2-IPh 2] | 531000 | 0 |  |  |
| c1ccc(CCN2C3CCC2c2c(n(Cc4ccccc4)c4ccccc24)C3)cc1 (stereo not drawn) [5 H Bn (CH2)2 Ph 2] | 1620 | 23.3 |  |  |
| Cn1c2c(c3ccccc31)C1CCC(C2)N1CCCCc1ccccc1 (stereo not drawn) [5 H CH3 (CH2)4 Ph 2] | 1820 ± 80 | 49 |  |  |
| O=C1c2ccccc2C(=O)N1CCN1C2CCC1c1c([nH]c3ccccc13)C2 (stereo not drawn) [6 H H (CH2)2 2-phthalimido 2] | 52100 |  |  | inhibition at 1 µM [3, 8]: 5.3% |
| Fc1ccc2[nH]c3c(c2c1)C1CCC(C3)N1CCCN1Cc2ccccc2C1 (stereo not drawn) [7 F H (CH2)3 2-isoindolinyl 2] | 1780 ± 630 |  |  | inhibition at 1 µM [3, 8]: 72.2% |
| c1ccc2c(c1)CN(CCN1C3CCC1c1c([nH]c4ccccc14)C3)C2 (stereo not drawn) [7 H H (CH2)2 2-isoindolinyl 2] | 2200 ± 180 |  |  | inhibition at 1 µM [3, 8]: 55.1% |
| Clc1ccc(OCCN2C3CCC2c2c([nH]c4ccccc24)C3)cc1Cl (stereo not drawn) [7 H H (CH2)2 O-3,4-Cl2 Ph 2] | 650 | 48.9 |  |  |
| CN(CCc1ccc(Cl)c(Cl)c1)CCN1C2CCC1c1c([nH]c3ccccc13)C2 (stereo not drawn) [9 H H (CH2)2 N(CH3)CH2 CH2-3,4-Cl2 Ph 2] | 2530 ± 160 |  |  | inhibition at 1 µM [3, 8]: 34.7% |
